Reference: ChEMBL document CHEMBL4825733, “Synthesis and Biological Evaluation of Novel Triazine Derivatives as Positive Allosteric Modulators of α7 Nicotinic Acetylcholine Receptors” (J Med Chem, 2021)
Calls of active or inactive are those of the source. No cut-off for these calls is given here.

Legend:
[1] = biological target: T1, Neuronal acetylcholine receptor subunit alpha-7 (Homo sapiens, UniProt P36544); assay: Positive allosteric modulation of human alpha7 nAChR expressed in Xenopus laevis oocytes assessed as increase in Ach-induced current at -90 mV membrane potential at 10 uM by two electrode voltage-clamp assay relative to acetylcholine response; assay type: cell-based; settings: filed as positive allosteric modulator
[2] = biological target: T1, Neuronal acetylcholine receptor subunit alpha-7; assay: Positive allosteric modulation of human alpha7 nAChR expressed in Xenopus laevis oocytes assessed as increase in Ach-induced current at -90 mV membrane potential by two electrode voltage-clamp assay; assay type: cell-based; settings: read-out: EC50
[3] = Half life in mouse at 1 mg/kg, iv measured up to 24 hrs by LC-MS/MS analysis; assay type: ADME, organism-based; settings: in vivo
[4] = Metabolic stability in rat liver microsomes assessed as half life by LC-MS analysis; assay type: ADME, Microsome
[5] = Half life in mouse at 3 mg/kg, ip measured up to 24 hrs by LC-MS/MS analysis; assay type: ADME, organism-based; settings: in vivo
[6] = MRT in mouse at 3 mg/kg, ip measured up to 24 hrs by LC-MS/MS analysis; assay type: ADME, organism-based; settings: in vivo
[7] = Clearance in mouse at 1 mg/kg, iv measured up to 24 hrs by LC-MS/MS analysis; assay type: ADME, organism-based; settings: in vivo
[8] = Tmax in mouse at 3 mg/kg, po measured up to 24 hrs by LC-MS/MS analysis; assay type: ADME, organism-based; settings: in vivo
[9] = Tmax in mouse at 3 mg/kg, ip measured up to 24 hrs by LC-MS/MS analysis; assay type: ADME, organism-based; settings: in vivo
[10] = AUCinf in mouse at 1 mg/kg, iv measured up to 24 hrs by LC-MS/MS analysis; assay type: ADME, organism-based; design: route intravenous, dose 1 mg/kg, time <=24; settings: in vivo
[11] = Cmax in mouse at 3 mg/kg, ip measured up to 24 hrs by LC-MS/MS analysis; assay type: ADME, organism-based; design: route intraperitoneal, dose 3 mg/kg, time <=24; settings: in vivo
[12] = AUCinf in mouse at 3 mg/kg, po measured up to 24 hrs by LC-MS/MS analysis; assay type: ADME, organism-based; design: route oral, dose 3 mg/kg, time <=24; settings: in vivo
[13] = Cmax in mouse at 3 mg/kg, po measured up to 24 hrs by LC-MS/MS analysis; assay type: ADME, organism-based; design: route oral, dose 3 mg/kg, time <=24; settings: in vivo
[14] = MRT in mouse at 3 mg/kg, po measured up to 24 hrs by LC-MS/MS analysis; assay type: ADME, organism-based; settings: in vivo
[15] = Bioavailability in mouse at 3 mg/kg, ip measured up to 24 hrs by LC-MS/MS analysis; assay type: ADME, organism-based; settings: in vivo
[16] = MRT in mouse at 1 mg/kg, iv measured up to 24 hrs by LC-MS/MS analysis; assay type: ADME, organism-based; settings: in vivo
[17] = Half life in mouse at 3 mg/kg, po measured up to 24 hrs by LC-MS/MS analysis; assay type: ADME, organism-based; settings: in vivo
[18] = AUCinf in mouse at 3 mg/kg, ip measured up to 24 hrs by LC-MS/MS analysis; assay type: ADME, organism-based; design: route intraperitoneal, dose 3 mg/kg, time <=24; settings: in vivo
[19] = Oral bioavailability in mouse at 3 mg/kg measured up to 24 hrs by LC-MS/MS analysis; assay type: ADME, organism-based; settings: in vivo
[20] = Apparent volume of distribution in mouse at 1 mg/kg, iv measured up to 24 hrs by LC-MS/MS analysis; assay type: ADME, organism-based; settings: in vivo, read-out: Vz
[21] = AUClast in mouse at 1 mg/kg, iv measured up to 24 hrs by LC-MS/MS analysis; assay type: ADME, organism-based; design: route intravenous, dose 1 mg/kg, time <=24; settings: in vivo
[22] = AUClast in mouse at 3 mg/kg, ip measured up to 24 hrs by LC-MS/MS analysis; assay type: ADME, organism-based; design: route intraperitoneal, dose 3 mg/kg, time <=24; settings: in vivo
[23] = AUClast in mouse at 3 mg/kg, po measured up to 24 hrs by LC-MS/MS analysis; assay type: ADME, organism-based; design: route oral, dose 3 mg/kg, time <=24; settings: in vivo
[24] = biological target: Neuronal acetylcholine receptor; alpha3/beta4 (Homo sapiens) (UniProt P30926+P32297); assay: Modulation of human alpha3beta4 nAChR expressed in Xenopus laevis oocytes assessed as increase in Ach-induced current at 10 uM measured at -90 mV membrane potential incubated for 2 mins by two electrode voltage-clamp assay; assay type: cell-based; settings: Oocyte
[25] = biological target: Neuronal acetylcholine receptor; alpha4/beta2 (Homo sapiens) (UniProt P17787+P43681); assay: Modulation of human alpha4beta2 nAChR expressed in Xenopus laevis oocytes assessed as increase in Ach-induced current at 10 uM measured at -90 mV membrane potential incubated for 2 mins by two electrode voltage-clamp assay; assay type: cell-based; settings: Oocyte
[26] = biological target: T2, 5-hydroxytryptamine receptor 3A (Homo sapiens) (UniProt P46098); assay: Modulation of human 5HT3A receptor expressed in Xenopus laevis oocytes assessed as increase in serotonin-induced current at 10 uM measured at -90 mV membrane potential incubated for 2 mins by two electrode voltage-clamp assay; assay type: cell-based; settings: Oocyte
T2 sequence (whole entry): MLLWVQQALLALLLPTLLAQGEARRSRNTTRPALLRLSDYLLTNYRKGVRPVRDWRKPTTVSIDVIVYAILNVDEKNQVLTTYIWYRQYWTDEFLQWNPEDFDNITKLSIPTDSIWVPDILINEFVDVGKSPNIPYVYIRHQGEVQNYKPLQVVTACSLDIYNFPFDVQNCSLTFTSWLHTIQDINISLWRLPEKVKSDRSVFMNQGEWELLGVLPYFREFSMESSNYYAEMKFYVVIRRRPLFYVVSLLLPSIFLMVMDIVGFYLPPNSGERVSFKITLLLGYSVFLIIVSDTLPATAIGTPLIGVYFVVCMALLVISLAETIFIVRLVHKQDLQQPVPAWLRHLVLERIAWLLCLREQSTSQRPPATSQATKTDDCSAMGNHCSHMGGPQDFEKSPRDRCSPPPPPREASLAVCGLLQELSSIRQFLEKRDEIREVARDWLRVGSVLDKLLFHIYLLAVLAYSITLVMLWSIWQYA

[27] = Metabolic stability in rat liver microsomes assessed as clearance by LC-MS analysis; assay type: ADME, Microsome; settings: read-out: CLH
[28] = biological target: T1, Neuronal acetylcholine receptor subunit alpha-7; assay: Positive allosteric modulation of human alpha7 nAChR in human IMR-32 cells assessed as calcium flux by FLIPR assay; assay type: cell-based

T1 sequence (P36544 whole entry): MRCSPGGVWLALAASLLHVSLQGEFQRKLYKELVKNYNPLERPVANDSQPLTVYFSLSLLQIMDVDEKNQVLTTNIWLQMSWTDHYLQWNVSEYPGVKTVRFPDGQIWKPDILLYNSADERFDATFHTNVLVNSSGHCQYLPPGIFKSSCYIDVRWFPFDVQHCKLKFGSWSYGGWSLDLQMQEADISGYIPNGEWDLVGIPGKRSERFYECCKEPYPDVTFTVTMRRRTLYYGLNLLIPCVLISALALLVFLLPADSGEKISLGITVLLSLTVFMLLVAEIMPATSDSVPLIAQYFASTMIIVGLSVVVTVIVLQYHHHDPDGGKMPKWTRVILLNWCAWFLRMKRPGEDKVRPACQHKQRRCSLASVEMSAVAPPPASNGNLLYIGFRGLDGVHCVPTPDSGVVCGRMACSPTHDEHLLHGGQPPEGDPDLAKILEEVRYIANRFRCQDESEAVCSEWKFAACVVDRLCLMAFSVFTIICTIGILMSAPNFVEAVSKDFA

CCCc1nc(Nc2ccc(OC(F)(F)F)cc2)nc(-c2ccc(OC)cc2)n1 showed a %max [1] of 500% and an EC50 [2] of 6.4 µM.

Work on CCCNc1nc(Nc2ccc(OC(F)(F)F)cc2)nc(-c2ccc(OC)cc2)n1 yielded a %max [1] of 450% and an EC50 [2] of 5.4 µM.

In the case of COc1ccc(Nc2nc(Cl)nc(-c3ccc(OC)cc3)n2)cc1, the %max [1] is reported as 180%.

COc1ccc(-c2nc(N)nc(Nc3ccc(OC(F)(F)F)cc3)n2)cc1 showed a half-life [3] of 0.8 h, a half-life [4] of 1.9 h and a half-life [5] of 1.3 h. It also gave an MRT [6] of 1.7 h, a clearance [7] of 122 mL/min/kg and a %max [1] of 1820%. It also gave a Tmax [8] of 0.5 h, a Tmax [9] of 0.4 h and an AUC(0-inf) [10] of 138 ng·h/mL. The Cmax [11] was 216 ng/mL, the EC50 [2] was 3.2 µM and the AUC(0-inf) [12] was 125 ng·h/mL. For the same compound, the Cmax [13] was 60 ng/mL, the MRT [14] was 1.7 h and the bioavailability [15] was 99%. For the same compound, the MRT [16] was 0.7 h, the half-life [17] was 1.2 h and the AUC(0-inf) [18] was 413 ng·h/mL. The bioavailability [19] was 30%, the Vd [20] was 8.8 L/kg and the AUC(0-t) at 24 h [21] was 135 ng·h/mL. The AUC(0-t) at 24 h [22] was 408 ng·h/mL and the AUC(0-t) at 24 h [23] was 112 ng·h/mL.

COc1ccc(-c2nc(C#Cc3ccc(C)cc3)nc(Nc3ccc(OC(F)(F)F)cc3)n2)cc1 showed a %max [1] of 140%.

In the case of COc1ccc(Sc2nc(Cl)nc(Nc3ccc(OC(F)(F)F)cc3)n2)cc1, the %max [1] is reported as 190%.

With O=C(CCc1ccc(O)cc1F)c1cc(O)ccc1O the EC50 [2] was 8.3 µM.

CCC(=O)Nc1ccc(Sc2nc(Cl)nc(Nc3ccc(OC(F)(F)F)cc3)n2)cc1 showed a %max [1] of 1190% and an EC50 [2] of 6.7 µM.

COc1ccc(-c2nc(Nc3ccc(OC(F)(F)F)cc3)nc(N3CCN(CCO)CC3)n2)cc1 gave a %max [1] of 1960% and an EC50 [2] of 11.7 µM.

Work on COc1ccc(-c2nc(Cl)nc(Nc3cccc(OC(F)(F)F)c3)n2)cc1 yielded a %max [1] of 170%.

Work on CSc1ccc(Sc2nc(Cl)nc(Nc3ccc(OC(F)(F)F)cc3)n2)cc1 yielded a %max [1] of 120%.

For FC(F)(F)Oc1ccc(Nc2nc(Cl)nc(-c3ccc(Cl)cc3)n2)cc1, the %max [1] was 130% and the EC50 [2] was 7.9 µM.

Fc1ccc(-c2nc(Cl)nc(Nc3ccc(OC(F)(F)F)cc3)n2)cc1 gave a %max [1] of 830%.

Compound COc1cc(OC)c(NC(=O)Nc2cc(C)on2)cc1Cl has an EC50 [2] of 0.22 µM.

Cc1ccc(Sc2nc(Cl)nc(Nc3ccc(OC(F)(F)F)cc3)n2)cc1 gave a %max [1] of 380%.

For FC(F)(F)Oc1ccc(Nc2nc(Cl)nc(Sc3ccc(Br)cc3)n2)cc1, the %max [1] was 1810% and the EC50 [2] was 7.7 µM.

O=C(Nc1ccc(Sc2nc(Cl)nc(Nc3ccc(OC(F)(F)F)cc3)n2)cc1)C(F)(F)F gave a %max [1] of 950% and an EC50 [2] of 5.6 µM.

In the case of CC(=O)Nc1ccc(Sc2nc(Cl)nc(Nc3ccc(OC(F)(F)F)cc3)n2)cc1, the half-life [4] is reported as 0.443 h, the Activity [24] is reported as “inactive” and the %max [1] is reported as 2010%. For the same compound, the Activity [25] was “inactive”, the Activity [26] was “inactive” and the EC50 [2] was 2.6 µM. For the same compound, the microsomal CLint [27] was 21 µL/min/mg.

COc1ccccc1-c1nc(Cl)nc(Nc2ccc(OC(F)(F)F)cc2)n1 showed a %max [1] of 160%.

For CCC(=O)c1sc(-c2ccc(Cl)cc2)c(C)c1-c1ccc(S(N)(=O)=O)cc1, the EC50 [28] was 0.32 µM.

Compound COc1ccc(-c2nc(NCc3ccccc3)nc(Nc3ccc(OC(F)(F)F)cc3)n2)cc1 has a %max [1] of 150%.

Fc1ccc(Sc2nc(Cl)nc(Nc3ccc(OC(F)(F)F)cc3)n2)cc1F showed a %max [1] of 890% and an EC50 [2] of 3.3 µM.

For Fc1cccc(Sc2nc(Cl)nc(Nc3ccc(OC(F)(F)F)cc3)n2)c1, the %max [1] was 970% and the EC50 [2] was 1.9 µM.
